Article PMC9529094, “Identification of natural cytochalasins as leads for neglected tropical diseases drug discovery” (PLoS ONE, 2022)
Like-named read-outs stand apart in the source and are kept apart here.

Experiments:
in vitro [1] = format: cell-based; details: human, 72 h, MTS
Procedure: (§1) THP-1 (human monocyte cell line) cells were cultivated in RPMI medium supplemented with 10% foetal calf serum (FCS) (Cultilab, Campinas, SP, BR) and 1% penicillin and streptomycin (pen/strep—Sigma-Aldrich) at 37°C under 5% CO2, and HFF-1 (human fibroblast) and HepG2 (hepatocytes) cells were cultivated in DMEM without phenol red (Cultilab) supplemented with 10% FBS (Sigma-Aldrich) and 1% pen/strep at 37°C under 5% CO2.
The cytotoxicity of the compounds against HFF-1 fibroblasts and HepG2 hepatocytes was evaluated using the MTS tetrazolium assay (Promega, Madison, WI, USA). HFF-1 fibroblasts were seeded at 4x10^3/well in 96-well culture plates in DMEM without phenol red and incubated overnight (37°C, 5% CO2). HepG2 hepatocytes were seeded at 7x10^3/well in 96-well culture plates in DMEM (Cultilab) with supplements (10% FCS, 1% pen/strep) and incubated overnight (37°C, 5% CO2). The compounds were added in 2-fold serial dilutions at the same concentrations described before, and the plates were incubated as described before. Each compound concentration was evaluated in duplicate. All the plates included doxorubicin (DOX) (Sigma-Aldrich) as a positive control (10–0.01 μM) and untreated wells as a negative control (100% growth). After 72 h, 15 μL of MTS (Promega) was added, and the plates were incubated for 4 h. The absorbance was measured at 490 nm in an automated SpectraMax 384 microplate reader (Sunnyvale, CA, USA), and the data were analysed using GraphPad Prism version 8.0 for CC50 value calculation. The percentage of nonviable cells was determined and compared to the negative control wells (100% growth).

[2] = system: intracellular L. infantum amastigotes; assay: microbe, parasite or virus in culture; format: cell-based, Leishmania infantum; details: for IC50: intracellular amastigotes in THP-1 macrophages, 120 h, read-out: L. infantum IC50 (μM ± SD); for SI^2 (CC50 THP-1/IC50 L. infantum) / SI^4 (CC50 HepG2/IC50 L. infantum): selectivity index
Procedure: (§2) The epimastigote forms of the T. cruzi Tulahuen strain, which expresses the E. coli β-galactosidase gene lacZ [11], were grown in liver infusion tryptone (LIT) supplemented with 10% FCS (Cultilab) and 1% pen/strep (Sigma–Aldrich) at 28°C. Metacyclogenesis from epimastigotes to trypomastigotes was induced by the incubation of the epimastigotes in Grace’s insect medium (Sigma-Aldrich, 28°C) every 5 days. After 5 days, the trypomastigote forms were used to infect the HFF-1 cells. The promastigote forms of L. infantum were maintained in Schneider’s insect medium (Sigma-Aldrich) supplemented with 10% FCS (Cultilab) and 1% pen/strep (Sigma-Aldrich) at 28°C and subcultured every 6 or 7 days.
In the intracellular amastigote assay, THP-1 cells were seeded at 2x10^4/well (RPMI-1640, 100 μL) with phorbol 12-myristate 13-acetate (PMA) at 20 ng/mL for differentiation into macrophages. After incubation for 72 h (5% CO2, 37°C), the medium was aspirated, and late-stage L. infantum promastigotes were added (2x10^5/well, 100 μL). Following 24 h of incubation, the medium was aspirated to clear extracellular parasites, and the compounds were added in serial dilutions (2-fold) to final concentrations of 64–0.12 μM. The plates included negative controls (100% growth) and MIL (64–0.12 μM) as a positive control. After 120 h of incubation, the medium was removed, and the cells were fixed in methanol and stained with Giemsa. The average number of intracellular amastigotes per THP-1-cell was determined using an inverted microscope and a cell counter. Growth inhibition is expressed as a percentage of the average number of amastigotes per macrophage in the negative control wells. The IC50 values were obtained using GraphPad Prism version 8.0.
(§3) The analyses were performed using GraphPad Prism version 8.0 (GraphPad Software, San Diego, CA, USA). Both the IC50 and CC50 values were calculated by adjusting the sigmoid dose-response curves, and the selectivity index (SI) values were determined by CC50/IC50 [16]. Statistical analyses were performed using one-way ANOVA followed by Dunnett’s multiple comparison test.

[3] = system: intracellular T. cruzi Tulahuen LacZ amastigotes; assay: microbe, parasite or virus in culture; format: cell-based, Trypanosoma cruzi; details: for IC50: Trypanosoma cruzi, intracellular amastigotes, Tulahuen LacZ, HFF-1 host cells, 120 h, read-out: T. cruzi IC50 (μM ± SD); for SI^1 (CC50 HFF-1/IC50 T. cruzi) / SI^3 (CC50 HepG2/IC50 T. cruzi): selectivity index
Procedure: as §2
In vitro assays against T. cruzi were performed as described previously. HFF-1 human fibroblasts were seeded at 4x10^3/well in 96-well tissue culture plates in DMEM (Cultilab) without phenol red and then incubated overnight (37°C, 5% CO2). Next, trypomastigotes were added at 4x10^4/well, and the plates were incubated (37°C, 5% CO2). After 24 h, 2-fold serial dilutions of the test compounds were added at concentrations ranging from 64 to 0.12 μM, and the plates were then incubated (37°C, 5% CO2). Each compound concentration was evaluated in duplicate. All the plates included BZ (64–0.12 μM) (Sigma-Aldrich) as a positive control and untreated wells (100% growth) as a negative control. After 120 h, chlorophenol red β-D-galactopyranoside (CPRG, Sigma-Aldrich) was added to each well. The absorbance was measured at 570 nm in an automated SpectraMax 384 microplate reader (Sunnyvale, CA, USA), and the data were analysed using GraphPad Prism version 8.0 (San Diego, CA, USA) for IC50 value calculation.
as §3

in vitro [4] = format: cell-based; details: human; 72 h, resazurin; read-out: THP-1 CC50 (μM ± SD)
Procedure: as §1
THP-1 cells were seeded at 2x10^4/well in 96-well culture plates in RPMI 1640 supplemented (10% FCS, 1% pen/strep) and incubated overnight (37°C, 5% CO2). The compounds were added in 2-fold serial dilutions (64–0.12 μM), and the plates were incubated as described before. Each compound concentration was evaluated in duplicate. All the plates included DOX (Sigma-Aldrich) as a positive control (10–0.01 μM) and untreated wells as a negative control (100% growth). After 72 h, 20 μL of resazurin (Sigma-Aldrich) was added, and the plates were incubated for 4 h. The absorbance was measured at 536 and 588 nm in an automated microplate reader SpectraMax Gemini, and the data were analysed using GraphPad Prism version 8.0 for CC50 value calculation. The percentage of nonviable cells was determined and compared to the negative control wells (100% growth).

[5] = Leishmania infantum, THP-1, 120 h

Row | SMILES | CC50 (in vitro [1]; read-out: HFF-1 CC50 (μM ± SD)) | CC50 (in vitro [1]; read-out: HepG2 CC50 (μM ± SD)) | IC50 [2, 5] | SI^2 (CC50 THP-1/IC50 L. infantum) [2] | SI^4 (CC50 HepG2/IC50 L. infantum) [2] | IC50 [3] | SI^1 (CC50 HFF-1/IC50 T. cruzi) [3] | SI^3 (CC50 HepG2/IC50 T. cruzi) [3] | CC50 (in vitro [4]) | IC50 [2]
1 | C=C1[C@@H](C)[C@H]2[C@H](Cc3ccccc3)NC(=O)[C@]23OC(=O)/C=C/C(=O)CCC[C@@H](C)C/C=C/[C@H]3[C@@H]1O [Cytochalasin A] | 27.07 ± 0.17 µM | 21.1 ± 4.51 µM | 2.76 ± 1.17 µM | 6.17 | 7.65 | 3.02 ± 2.16 µM | 8.96 | 6.99 | 17 ± 1.34 µM | 
2 | C=C1[C@@H](C)[C@H]2[C@H](Cc3ccccc3)NC(=O)[C@]23OC(=O)/C=C/[C@H](O)CCC[C@@H](C)C/C=C/[C@H]3[C@@H]1O [Cytochalasin B] | 21.8 ± 3.57 µM | 46.3 ± 19.3 µM | 22 to 23 µM | 4.57 | 1.93 | 16.9 ± 1.47 µM | 1.29 | 2.74 | 109 ± 2.4 µM | 23.9 ± 3.02 µM
3 | CC(=O)OC1C=CC(C)(O)C(=O)C(C)CC=CC2C(O)C(C)=C(C)C3C(Cc4ccccc4)NC(=O)C123 (stereo not shown) [Cytochalasin C] | 76.3 ± 3.12 µM | 22.5 ± 6.47 µM | 23.2 ± 4.9 µM | 3.65 | 0.96 | 10.2 ± 1.13 µM | 7.45 | 2.19 | 84.8 ± 6.84 µM | 
4 | C=C1[C@@H](C)[C@H]2[C@H](Cc3ccccc3)NC(=O)[C@]23[C@H](OC(C)=O)/C=C/[C@@](C)(O)C(=O)[C@@H](C)C/C=C/[C@H]3[C@@H]1O [Cytochalasin D] | 96.5 ± 10 µM | 123 ± 20 µM | 22.5 ± 0.97 µM | 5.42 | 5.46 | 20.2 ± 3.27 µM | 4.78 | 6.11 | 122 ± 11.3 µM | 
